{"source": "patent US5441984A", "about": "“Urea, thiourea and guanidine derivatives” (Eli Lilly and Company, priority 1994, dated 1995)", "key": {"[1]": {"target": "Protein Kinase C mediated procollagenase synthesis and secretion", "experiment": "In Vitro Inhibition of Procollagenase: PKC (PDBu) stimulated procollagenase synthesis and secretion in primary human dermal fibroblasts", "format": "cell-based", "design": "unit not given here", "settings": "2.0% FBS used to supplement DME; 10 nM PDBu, 72 hours", "description": "Collagenase and stromelysin are matrix metalloendoproteases which are known to be synthesized and secreted by a number of cell types in response to Protein Kinase C (PKC) activation. Matrix metalloendoproteases are responsible for the degradation of extracellular matrix molecules in the basement membrane and play a role in cell invasiveness, tissue remodeling alterations in the microvasculature (increased capillary permeability and uncontrolled cell growth) and normal matrix turnover. Alterations in the microvasculature are hallmarks of diabetic complications such as kidney failure, blindness and neuropathy. Accordingly, the ability to modulate PKC driven pathways, such as the synthesis and secretion of the […] enzyme precursor, procollagenase, should provide pharmacological advantages in treating diabetic complications.\nThe compounds of the present invention were evaluated for their ability to antagonize Protein Kinase C mediated procollagenase synthesis and secretion according to the following methodology.\nStimulation of the enzyme Protein Kinase C with 4-β-phorbol-12,13-dibutyrate (PDBu) leads human fibroblasts and other cells of endodermal, mesodermal and ectodermal origin to synthesize and secrete the enzyme precursor procollagenase. […]\n9. After washing, the plates were read. […]"}, "diabetic rats": {"test_system": "diabetic rats", "experiment": "In Vivo Vascular Permeability Study in diabetic rats", "design": "species or system rat", "settings": "treated diabetic rats; 0.1% of diet, seven weeks; Mean ± SD; eight rats per group", "method": "As confirmation of the in vivo results obtained above, a second in vivo experiment was conducted. In this in vivo test system the compound of Example 7 was fed to diabetic rats at 0.1% of the rat's diet for seven weeks. After seven weeks the rats were killed and vascular permeability in a number of different organ systems was compared. In Table III, Column 1 discloses the organ system examined, while Columns 2, 3 and 4 disclose the vascular permeability in μg of plasma/gram wet weight/minute for control (non-diabetic rats), untreated (diabetic rats/untreated) and treated (diabetic rats/treated), respectively (eight rats per each group)."}}}
{"compound": "N-[[3-(methylthiophenyl)-4-hydroxy-5-(1,1-dimethylethyl)phenyl]methyl]-N'-[4-(methylthio)phenyl]urea [Example 13]", "values": [{"measurement": "IC50", "setting": "[1]", "value": 8.6}]}
{"compound": "COc1c(C(C)(C)C)cc(CNC(=O)Nc2ccc(SC)cc2)cc1C(C)(C)C", "note": "[Example 7]", "values": [{"measurement": "vascular permeability, aorta", "setting": "diabetic rats", "value": "109 ± 65 μg plasma/g wet weight/min"}, {"measurement": "vascular permeability, brain", "setting": "diabetic rats", "value": "26 ± 11 μg plasma/g wet weight/min"}, {"measurement": "vascular permeability, heart", "setting": "diabetic rats", "value": "547 ± 181 μg plasma/g wet weight/min"}, {"measurement": "vascular permeability, kidney", "setting": "diabetic rats", "value": "1208 ± 293 μg plasma/g wet weight/min"}, {"measurement": "vascular permeability, muscle", "setting": "diabetic rats", "value": "59 ± 13 μg plasma/g wet weight/min"}, {"measurement": "vascular permeability, ocular anterior uvea", "setting": "diabetic rats", "value": "373 ± 105 μg plasma/g wet weight/min"}, {"measurement": "vascular permeability, ocular posterior uvea", "setting": "diabetic rats", "value": "323 ± 91 μg plasma/g wet weight/min"}, {"measurement": "vascular permeability, retina", "setting": "diabetic rats", "value": "62 ± 18 μg plasma/g wet weight/min"}, {"measurement": "vascular permeability, sciatic nerve", "setting": "diabetic rats", "value": "59 ± 18 μg plasma/g wet weight/min"}]}
{"compound": "CSc1cccc(NC(=O)NCc2cc(C(C)(C)C)c(O)c(C(C)(C)C)c2)c1", "note": "[Example 11, N-[[3,5-Bis(1,1-dimethylethyl)-4-hydroxyphenyl]methyl]-N'-[3-(methylthio)phenyl]urea]", "values": [{"measurement": "% Normalization of Diabetic State, Blood Flow", "setting": "rat", "value": 21.50, "unit": "%"}, {"measurement": "% Normalization of Diabetic State, Blood Vessel Permeability", "setting": "rat", "value": -30.34, "unit": "%"}]}
{"compound": "CSc1ccc(NC(=O)NCc2cc(C(C)(C)C)c(O)c(C(C)(C)C)c2)cc1", "note": "[Example 6, N-[[3,5-Bis(1,1-dimethylethyl)-4-hydroxyphenyl]methyl]-N'-[4-(methylthio)phenyl]urea]", "values": [{"measurement": "% Normalization of Diabetic State, Blood Flow", "setting": "rat", "value": 35.48, "unit": "%"}, {"measurement": "% Normalization of Diabetic State, Blood Vessel Permeability", "setting": "rat", "value": 66.12, "unit": "%"}]}
{"compound": "CC(C)(C)c1cc(CNC(=S)Nc2ccccc2)cc(C(C)(C)C)c1O", "note": "[Example 10, N-[[3,5-Bis(1,1-dimethylethyl)-4-hydroxyphenyl]methyl]-N'-phenylthiourea]", "values": [{"measurement": "% Normalization of Diabetic State, Blood Flow", "setting": "rat", "value": 17.56, "unit": "%"}, {"measurement": "% Normalization of Diabetic State, Blood Vessel Permeability", "setting": "rat", "value": 1.99, "unit": "%"}]}
{"compound": "CSc1ccccc1NC(=O)NCc1cc(C(C)(C)C)c(O)c(C(C)(C)C)c1", "note": "[Example 9, N-[[3,5-Bis(1,1-dimethylethyl)-4-hydroxyphenyl]methyl]-N'-[2-(methylthio)phenyl]urea]", "values": [{"measurement": "% Normalization of Diabetic State, Blood Flow", "setting": "rat", "value": 23.29, "unit": "%"}, {"measurement": "% Normalization of Diabetic State, Blood Vessel Permeability", "setting": "rat", "value": 8.45, "unit": "%"}]}
